Like-named read-outs stand apart in the source and are kept apart here. Marks after values point to notes of the source that are not given here.
Test system: ruminal microorganisms
Test: Effect of sulfur reducing agents on gas, volatile fatty acid and alcohol production, timothy hay with ruminal microorganisms (Example 7)
Assay type: cell-based, mixed rumen microorganisms from cows
Details: for H2 (% of all gases): 0.32 mmol/flask agent, timothy hay, mean of initial gas CO2 or N2 without added H2; for H2 (% of fermentation gas): molar percentage among gases excluding N2; for NDF remaining (% of DM): neutral detergent fiber after 24 h
Protocol: Initial in vitro experiments used timothy grass hay as substrate. For each digestion experiment, we obtained one-half liter of rumen contents from each of two ruminally-cannulated cows two to four hours after morning feeding. The digesta were mixed and ground in a Waring blender for 1 minute while being maintained under CO2 gas. Fluid was strained through four layers of cheese cloth followed by glass wool to remove large particles. Rumen fluid was added to a bicarbonate or 0.1 M sodium phosphate buffer with mineral salts.
Gas samples were collected continuously in mylar balloons, and gas volumes recorded at various time points. Glass tubing coated with epoxy was pushed into the opening on the mylar balloons. The tubing was connected to luer-lock connectors via nylon tubing. Samples were taken using glass syringes attached to the luer-lock connectors. Samples were stored in gas-tight vials for analysis of composition by GC with thermal conductivity detector. Rates of gas production were determined by fitting an inverted exponential equation.
The pH and reducing potential were determined using standard glass or platinum electrodes respectively, while maintaining the gas composition by keeping the flasks closed to the atmosphere with putty fitted around the electrodes. Liquid samples were collected at designated time points and analyzed by gas chromatography (GC) for alcohols (methanol, ethanol, propanol, butanol) volatile fatty acids (acetate, propionate, butyrate, etc). Rates of alcohol or VFA production were determined by fitting an inverted exponential equation.
True fiber digestibility was determined directly on the residue of digestion by refluxing in pH-neutral detergent solution for one hour, drying at 100° C. overnight and weighing.
An experiment was conducted to determine the effect of adding sulfur reducing agents on production of gases, volatile fatty acids, and alcohols. Twenty treatments were arranged in a 2×2×5 factorial design with factors of initial headspace gas (CO2 or N2), addition of 25 ml H2 gas to the initial headspace (+H2, —H2), or one of five sources of sulfur redox agents (0.32 mmol/flask): Na2SO4, Na2SO3, S^0, Na2S, or none. Samples (0.5 g timothy hay) were incubated for 24 hours and products measured as previously. At the start of the incubation, each 125-ml flask was perfused with respective gas. For treatments receiving added H2, 25 ml of perfused gas (at 1 atm pressure) was removed from the flask headspace and forced into the collection balloon. This removed gas was replaced with H2.

[1] = 24 h, mean of CO2 or N2 without added H2
[2] = mean of CO2 or N2 without added H2

In the case of [Na+].[Na+].[S-2] [Na2S], the “H2 (% of all gases)” value (24 h) is reported as 0.078^b %, the 1-propanol [1] is reported as 0 µmol and the “2Acet + 2Butyr − Propionate (estimated production of H2 equivalent from fermentation of sugar to VFA)” value (from here on “2Acet + 2Butyr − Propionate”) [1] is reported as 2660^a μmol. The Acetate [1] was 541^a μmol, the “Acetate:Butyrate, mole ratio” value [1] was 6.91^a and the “Acetate:Propion, mole ratio” value [1] was 2.59. The Butyrate [1] was 202^a μmol, the “CH4 (% of all gases)” value [1] was 5.04^a % and the “CH4 (% of fermentation gas)” value [1] was 14.3^a %. The “CH4:CO2 (molar ratio)” value [1] was 0.183^a, the “CH4:H2 (molar conc. ratio)” value [1] was 69^a and the CH4 production [1] was 335^a μmol. The “CO2 (% of all gases)” value [1] was 42.9^b %, the “CO2 (% of fermentation gas)” value [1] was 85.5^b % and the CO2 production [1] was 1773^ab μmol. For the same compound, the Eh [1] was −269^c, the Ethanol [1] was 0 µmol and the “H2 equivalent (H2 + 4 CH4)” value [1] was 1344^a. The H2 production [1] was 5.2^b μmol, the Isobutyrate [1] was 13.5^a μmol and the Isovalerate [1] was 14.7^a μmol. The Propionate [1] was 541^a μmol, the “Total VFA” value [1] was 2190^a μmol and the VFA-C [1] was 5455^a μmol. The pH [1] was 6.47^b, the valerate [1] was 19.5^a μmol and the “H2 (% of fermentation gas)” value [1] was 0.24^b %. For the same compound, the “NDF remaining (% of DM)” value [2] was 35.7^b % of DM.
O=S([O-])[O-].[Na+].[Na+] [SO3, Na2SO3] was tested, and the Eh was −264^bc, the “H2 (% of all gases)” value (24 h) was 1.39^a % and the 1-propanol [1] was 5.4^6 μmol. For the same compound, the “2Acet + 2Butyr − Propionate” value [1] was 1483^b μmol, the Acetate [1] was 293^b μmol and the “Acetate:Butyrate, mole ratio” value [1] was 4.89^b. The “Acetate:Propion, mole ratio” value [1] was 2.52, the Butyrate [1] was 152^b μmol and the “CH4 (% of all gases)” value [1] was 0.12^b %. For the same compound, the “CH4 (% of fermentation gas)” value [1] was 0.82^b %, the “CH4:CO2 (molar ratio)” value [1] was 0.010^b and the “CH4:H2 (molar conc. ratio)” value [1] was 0.1^b. For the same compound, the CH4 production [1] was 6.6^b μmol, the “CO2 (% of all gases)” value [1] was 47.9^ab % and the “CO2 (% of fermentation gas)” value [1] was 92.0^a %. The CO2 production [1] was 1002^b μmol, the Ethanol [1] was 25.8^5 μmol and the “H2 equivalent (H2 + 4 CH4)” value [1] was 103^b. The H2 production [1] was 76.6^a μmol, the Isobutyrate [1] was 9.8^b μmol and the Isovalerate [1] was 12.3^b μmol. For the same compound, the Propionate [1] was 293^b μmol, the “Total VFA” value [1] was 1206^b μmol and the VFA-C [1] was 3071^b μmol. For the same compound, the pH [1] was 6.72^a, the valerate [1] was 2.33^c μmol and the Methane production (H2 added at the beginning) was no more than 5 µmol. The “effect on methane production” value (each gas composition) was “strongly inhibited”, the “H2 (% of fermentation gas)” value [1] was 8.18^a % and the “NDF remaining (% of DM)” value [2] was 57.2^a % of DM. The valerate (starting with CO2, H2 added) was 2.3 µmol, the valerate (starting with CO2, H2 not added) was 3.0 µmol and the valerate (starting with N2, H2 added) was 8.3 µmol. It also gave a valerate (starting with N2, H2 not added) of 1.7 µmol and a hydrogen production (when H2 was added to initial headspace) of -179 µmol.
In the case of O=S(=O)([O-])[O-].[Na+].[Na+] [SO4, Na2SO4], the Eh is reported as −247^ab, the “H2 (% of all gases)” value (24 h) is reported as 0.073^b % and the 1-propanol [1] is reported as 0 µmol. The “2Acet + 2Butyr − Propionate” value [1] was 2628^a μmol, the Acetate [1] was 538^a μmol and the “Acetate:Butyrate, mole ratio” value [1] was 7.00^a. The “Acetate:Propion, mole ratio” value [1] was 2.57, the Butyrate [1] was 198^a μmol and the “CH4 (% of all gases)” value [1] was 5.02^a %. The “CH4 (% of fermentation gas)” value [1] was 14.4^a %, the “CH4:CO2 (molar ratio)” value [1] was 0.182^a and the “CH4:H2 (molar conc. ratio)” value [1] was 85^a. The CH4 production [1] was 363^a μmol, the “CO2 (% of all gases)” value [1] was 52.1^a % and the “CO2 (% of fermentation gas)” value [1] was 85.4^b %. The CO2 production [1] was 2298^ab μmol, the Ethanol [1] was 0 µmol and the “H2 equivalent (H2 + 4 CH4)” value [1] was 1459^a. The H2 production [1] was 5.0^b μmol, the Isobutyrate [1] was 12.0^a μmol and the Isovalerate [1] was 13.0^ab μmol. For the same compound, the Propionate [1] was 538^a μmol, the “Total VFA” value [1] was 2162^a μmol and the VFA-C [1] was 5370^a μmol. For the same compound, the pH [1] was 6.45^b, the valerate [1] was 16.7^b μmol and the “H2 (% of fermentation gas)” value [1] was 0.24^b %. For the same compound, the “NDF remaining (% of DM)” value [2] was 36.0^b % of DM.
For [S] [S^0], the Eh was −249^abc, the “H2 (% of all gases)” value (24 h) was 0.080^b % and the 1-propanol [1] was 0 µmol. The “2Acet + 2Butyr − Propionate” value [1] was 2840^a μmol, the Acetate [1] was 550^a μmol and the “Acetate:Butyrate, mole ratio” value [1] was 7.57^a. For the same compound, the “Acetate:Propion, mole ratio” value [1] was 2.72, the Butyrate [1] was 198^a μmol and the “CH4 (% of all gases)” value [1] was 4.61^a %. The “CH4 (% of fermentation gas)” value [1] was 13.8^a %, the “CH4:CO2 (molar ratio)” value [1] was 0.171^a and the “CH4:H2 (molar conc. ratio)” value [1] was 79^a. The CH4 production [1] was 334^a μmol, the “CO2 (% of all gases)” value [1] was 50.5^a % and the “CO2 (% of fermentation gas)” value [1] was 86.0^b %. The CO2 production [1] was 1795^ab μmol, the Ethanol [1] was 0 µmol and the “H2 equivalent (H2 + 4 CH4)” value [1] was 1340^a. For the same compound, the H2 production [1] was 5.9^b μmol, the Isobutyrate [1] was 12.2^a μmol and the Isovalerate [1] was 13.3^ab μmol. The Propionate [1] was 550^a μmol, the “Total VFA” value [1] was 2287^a μmol and the VFA-C [1] was 5634^a μmol. The pH [1] was 6.43^b, the valerate [1] was 17.1^b μmol and the “H2 (% of fermentation gas)” value [1] was 0.22^b %. For the same compound, the “NDF remaining (% of DM)” value [2] was 36.5^b % of DM.
